Data on 8 compounds can be found in patent US11927585B2, “Solvent-based inks and coatings for food contact applications” (SUN CHEMICAL CORPORATION, priority 2020, dated 2024).

For series [1] the following is noted: cited from earlier work.
Series [2] can be described thus: Worst-case calculation (100% migration), standard EU Cube exposure model. Conditions: for Worst Case Calculation of migration in EU Cube model (as a percentage of SML) / Worst-case calculation as a percentage of SML (or restriction), EU Cube: 100% migration; for Worst Case Calculation of migration in EU Cube model (as a percentage of SML): dry coat weight 2.0 g/m^2; for Worst Case Calculation of migration in EU Cube model: Basis for Safety outcome: volatile substance; for Worst-case calculation as a percentage of SML (or restriction), EU Cube: 2.0 g/m^2 dry film.

Series [3] is described as follows: Worst-case calculation, Application 1 yoghurt pot lid exposure scenario. Conditions: 100% migration, 2.0 g/m^2 dry film.
Series [4] in a line: Worst-case calculation, Application 2 cheese packaging wrap exposure scenario. Conditions: 100% migration, 2.0 g/m^2 dry film.
The nature of series [5]: Specific migration limit (SML) from regulation or hazard assessment (TTC, VEGA QSAR, Cramer Class). Conditions: source HA (internal hazard assessment), self-derived SML; EU Cube model.
[6] abbreviates: substance in ink SBDEV980 (Ex. 4B Red).
Where [7] appears, read: source PR (EU Plastics Regulation No. 10/2011) or SO (Swiss Ordinance), EU Cube model.
Setting [8] is: substance in ink SBDEV976 (Ex. 4C Cyan).
The mark [9] stands for this setting: substance in ink SBDEV977 (Ex. 4A Yellow).
Setting [10] is: substance in ink SBDEV979 (Ex. 4D Black).
Setting [11] is: Source of SML or restriction: SO (Swiss Ordinance).
The mark [12] stands for this setting: source of SML or restriction: SO (Swiss Ordinance).

Counter-ions that a name gives are not always drawn. Like-named read-outs stand apart in the source and are kept apart here.

For `O=C(O)c1c(-c2ccc(-c3ccccc3)cc2)[nH]c2nc(-c3ccc(-c4ccccc4)cc3)nc(-c3ccc(-c4ccccc4)cc3)c12` [2,4,6-Tris-Biphenyl-4-Yl-7H-Pyrrolo[2,3-D]Pyrimidine-5-Carboxylic Acid], the “SML (or restriction)” value in series [1] (Source of SML or restriction: Default 10 ppb) was 0.01 mg substance/kg food. In addition, the “SML or Restriction (mg substance/kg food)” value (“SML or Restriction” for short) in series [1] (source Default 10 ppb) is recorded as 0.01 mg substance/kg food. For the same compound, in series [2] (setting [6]), the “Worst Case Calculation of migration in EU Cube model (as a percentage of SML)” value was 380 percentage of SML.
For the compound `CCO` [0000064-17-5, ethanol], the “SML or Restriction” value in series [1] (setting [7]) is recorded as 60 mg substance/kg food. The “Worst Case Calculation of migration in EU Cube model: Basis for Safety outcome” value in series [2] (setting [8]), in series [2] (setting [9]), in series [2] (setting [10]) and in series [2] (setting [6]) was “Converter” in each case.
As for `CCCCOC(=O)CC(O)(CC(=O)OCCCC)C(=O)OCCCC` [0000077-94-1, Tributyl citrate], in series [1] (setting [7]), the “SML or Restriction” value was 0.05 mg substance/kg food. Besides, the “Worst-case calculation as a percentage of SML (or restriction), Application 1” value is listed as 21.7 percentage of SML (or restriction) in series [3] (product SBDEV976); 20.9 percentage of SML (or restriction) in series [3] (product SBDEV977); 20.8 percentage of SML (or restriction) in series [3] (product SBDEV979); 21.0 percentage of SML (or restriction) in series [3] (product SBDEV980); 20.73 percentage of SML (or restriction) in series [3] (product SBDEV1284); 20.73 percentage of SML (or restriction) in series [3] (product SBDEV1285). Besides, the “Worst-case calculation as a percentage of SML (or restriction), Application 1” value in series [3] (product SBDEV1286) and in series [3] (product SBDEV1287) was 20.73 percentage of SML (or restriction) throughout. Also, the “Worst-case calculation as a percentage of SML (or restriction), Application 2” value in series [4] (product SBDEV976) is listed as 79.6 percentage of SML (or restriction); in series [4] (product SBDEV977), 76.7 percentage of SML (or restriction); in series [4] (product SBDEV979) it was 76.0 percentage of SML (or restriction); in series [4] (product SBDEV980), 76.9 percentage of SML (or restriction); in series [4] (product SBDEV1284), 76.01 percentage of SML (or restriction); in series [4] (product SBDEV1285) it was 76.01 percentage of SML (or restriction). Moreover, the “Worst-case calculation as a percentage of SML (or restriction), Application 2” value in series [4] (product SBDEV1286) and in series [4] (product SBDEV1287) was 76.01 percentage of SML (or restriction) each time. The “Worst-case calculation as a percentage of SML (or restriction), EU Cube” value (“Worst-case calculation as a percentage … EU Cube” for short) in series [2] (product SBDEV976) is on record as 55.2 percentage of SML (or restriction); in series [2] (product SBDEV977), 53.2 percentage of SML (or restriction); in series [2] (product SBDEV979), 52.8 percentage of SML (or restriction); in series [2] (product SBDEV980), 53.4 percentage of SML (or restriction); in series [2] (product SBDEV1284), 52.8 percentage of SML (or restriction); in series [2] (product SBDEV1285), 52.8 percentage of SML (or restriction). In addition, the “Worst-case calculation as a percentage … EU Cube” value in series [2] (product SBDEV1286) and in series [2] (product SBDEV1287) was 52.8 percentage of SML (or restriction) in each case. Moreover, the “Worst Case Calculation of migration in EU Cube model (as a percentage of SML)” value in series [2] (setting [8]) is 55.2 percentage of SML; in series [2] (setting [9]) it was 53.2 percentage of SML; in series [2] (setting [10]), 52.8 percentage of SML; in series [2] (setting [6]), 53.4 percentage of SML.
`CCCOC(C)=O` [0000109-60-4, Acetic acid, propyl ester]: the “SML or Restriction” value in series [1] (setting [7]) is 60 mg substance/kg food. Besides, the “Worst Case Calculation of migration in EU Cube model: Basis for Safety outcome” value in series [2] (setting [8]), in series [2] (setting [9]), in series [2] (setting [10]) and in series [2] (setting [6]) was “Converter” in each case.
On to `c1ccc(-c2ccc(-c3nc(-c4ccc(-c5ccccc5)cc4)nc(-c4ccc(-c5ccccc5)cc4)n3)cc2)cc1` [0031274-51-8, 1,3,5-Triazine, 2,4,6-Tris([1,1′-Biphenyl]-4-Yl)-], for which the “Worst-case calculation as a percentage of SML (or restriction), Application 1” value in series [3] (product SBDEV980) and in series [3] (product SBDEV1285) was 0.1 percentage of SML (or restriction) each time. Also, the “Worst-case calculation as a percentage of SML (or restriction), Application 2” value in series [4] (product SBDEV980) and in series [4] (product SBDEV1285) was 0.4 percentage of SML (or restriction) each time. Moreover, the “SML or Restriction” value in series [5] is listed as 5 mg substance/kg food. Moreover, the “Worst-case calculation as a percentage … EU Cube” value in series [2] (product SBDEV980) and in series [2] (product SBDEV1285) was 0.3 percentage of SML (or restriction) in each case. The “Worst Case Calculation of migration in EU Cube model (as a percentage of SML)” value in series [2] (setting [6]) is 0.3 percentage of SML.
On to `CCCOC(C)=O` [Acetic acid, propyl ester], for which the “SML (or restriction)” value in series [1] (setting [11]) and in series [1] (setting [12]) was 60 mg substance/kg food each time.
As to `CCCCOC(=O)CC(O)(CC(=O)OCCCC)C(=O)OCCCC` [Tributyl citrate], the “SML (or restriction)” value in series [1] (setting [11]) and in series [1] (setting [12]) was 0.05 mg substance/kg food throughout.
In the case of `CCO` [ethanol], the “SML (or restriction)” value in series [1] (Source of SML or restriction: PR (EU Plastics Regulation No. 10/2011)) and in series [1] (source of SML or restriction: PR (EU Plastics Regulation No. 10/2011)) was 60 mg substance/kg food throughout.
